Experimental data: patent US12691182B2, “Maytansinoid derivatives, conjugates thereof, and methods of use” (priority 2016, dated 2026)

Key:
SKBR3 (Her2+) cells = assay: In vitro cytotoxicity assay, SKBR3 cells (CCK8 viability); type: cell-based; conditions: naked payload, SKBr-3 cells, 3 days; for SKBr-3 % kill: % kill reported for the highest dose; for IC50: CCK8
Procedure: (§1) In this Example, the ability of various antibody-drug conjugates and naked payloads to kill antigen-expressing tumor cells in vitro was assessed.
SKBR3 (Her2+) cells were seeded in 96 well plates at 8000 cells per well in complete growth media and grown overnight. For cell viability curves, serially diluted conjugates or naked payloads were added to the cells at final concentrations ranging from 100 nM to 5 pM and incubated for 3 days. To measure viability, cells were incubated with CCK8 (Dojindo) for the final 2 hours and the absorbance at 450 nm (OD450) was determined on a Victor (Perkin Elmer). Background OD450 levels determined from digitonin (40 nM) treated cells were subtracted from all wells and viability is expressed as a percentage of the untreated controls. IC50 values were determined from a four-parameter logistic equation over a 10-point response curve (GraphPad Prism). […] All curves and IC50 values are corrected for payload equivalents. The plot of % Cell Viability vs. Log 10 [M]
(§2) All IC50s are expressed in nM concentration and % kill is reported for the highest dose. All curves and IC50 values are corrected for payload equivalents. The plot of % Cell Viability vs. Log 10 [M]

C4-2 (STEAP2+) cells = assay: In vitro cytotoxicity assay, C4-2 cells (CellTiter-Glo viability); type: cell-based; conditions: naked payload, 5 days; for C4-2 % kill: % kill reported for the highest dose; for IC50: CellTiter-Glo
Procedure: as §1
C4-2 (STEAP2+) cells were seeded in 96 well plates at 4000 cells per well in complete growth media and grown overnight. For cell viability curves, serially diluted conjugates or naked payloads were added to the cells at final concentrations ranging from 100 nM to 5 pM and incubated for 5 days. To measure viability, cells were incubated with CellTiter-Glo reagents for 5 minutes and luminescence was determined on a Victor plate reader (PerkinElmer). IC50 values were determined from a four-parameter logistic equation over a 10-point response curve (GraphPad Prism).
as §2

Compound	SKBr-3 % kill (SKBR3 (Her2+) cells)	IC50 (SKBR3 (Her2+) cells) [nM]	C4-2 % kill (C4-2 (STEAP2+) cells)	IC50 (C4-2 (STEAP2+) cells) [nM]
COc1cc2cc(c1Cl)N(C)C(=O)CC(OC(=O)Nc1ccc(Cl)cc1N)C1(C)OC1C(C)C1CC(O)(NC(=O)O1)C(OC)C=CC=C(C)C2 (centres unmarked) [Compound 30b, Maytan-3-O-carbamoyl-N-(4-chloro-2-amino)benzene]	**** (**** indicates % kill greater than, or equal to, 95 and less than 99)	0.1 to 1	* (* indicates % kill less than 85)	≥ 10
COc1cc2cc(c1Cl)N(C)C(=O)CC(OC(=O)Nc1c(C)cccc1N)C1(C)OC1C(C)C1CC(O)(NC(=O)O1)C(OC)C=CC=C(C)C2 (centres unmarked) [Compound 30f, Maytan-3-O-carbamoyl-N-(6-methyl-2-amino)benzene]	***** (***** indicates % kill greater than, or equal to, 99)	0.1 to 1	**** (**** indicates % kill greater than, or equal to, 95 and less than 99)	1 to 10
COc1cc2cc(c1Cl)N(C)C(=O)C[C@H](OC(=O)Nc1ccc(F)cc1N)[C@]1(C)O[C@H]1[C@H](C)[C@@H]1C[C@@](O)(NC(=O)O1)[C@H](OC)/C=C/C=C(\C)C2 [Compound 30g, Maytan-3-O-carbamoyl-N-(4-fluoro-2-amino)benzene]	***** (***** indicates % kill greater than, or equal to, 99)	0.1 to 1	***** (***** indicates % kill greater than, or equal to, 99)	1 to 10
COc1cc2cc(c1Cl)N(C)C(=O)C[C@H](OC(=O)Nc1cc(N)ccc1F)[C@]1(C)O[C@H]1[C@H](C)[C@@H]1C[C@@](O)(NC(=O)O1)[C@H](OC)/C=C/C=C(\C)C2 [Compound 30h, Maytan-3-O-carbamoyl-N-(2-fluoro-5-amino)benzene]	**** (**** indicates % kill greater than, or equal to, 95 and less than 99)	0.1 to 1	* (* indicates % kill less than 85)	1 to 10
COc1ccc(NC(=O)O[C@H]2CC(=O)N(C)c3cc(cc(OC)c3Cl)C/C(C)=C/C=C/[C@@H](OC)[C@@]3(O)C[C@H](OC(=O)N3)[C@@H](C)[C@@H]3O[C@@]23C)c(N)c1 [Compound 30i, Maytan-3-O-carbamoyl-N-(4-methoxy-2-amino)benzene]	***** (***** indicates % kill greater than, or equal to, 99)	1 to 10	***** (***** indicates % kill greater than, or equal to, 99)	≥ 10
COc1cc2cc(c1Cl)N(C)C(=O)CC(OC(=O)Nc1cc(Cl)c(F)cc1N)C1(C)OC1C(C)C1CC(O)(NC(=O)O1)C(OC)C=CC=C(C)C2 (centres unmarked) [Compound 30o, Maytan-3-O-carbamoyl-N-(4-fluoro-5-chloro-2-amino)benzene]	***** (***** indicates % kill greater than, or equal to, 99)	0.1 to 1	* (* indicates % kill less than 85)	≥ 10
COc1cc2cc(c1Cl)N(C)C(=O)C[C@H](OC(=O)Nc1cc(N3CCOCC3)c(N)cc1C)[C@]1(C)O[C@H]1[C@H](C)[C@@H]1C[C@@](O)(NC(=O)O1)[C@H](OC)/C=C/C=C(\C)C2 [Compound 30p, Maytan-3-O-carbamoyl-N-(4-amino-2-methyl-5-morpholin-4-yl)benzene]	* (* indicates % kill less than 85)	≥ 10		≥ 10
COc1cc2cc(c1Cl)N(C)C(=O)C[C@H](OC(=O)Nc1cc(N3CCCC3)c(N)cc1C)[C@]1(C)O[C@H]1[C@H](C)[C@@H]1C[C@@](O)(NC(=O)O1)[C@H](OC)/C=C/C=C(\C)C2 [Compound 30q, Maytan-3-O-carbamoyl-N-(4-amino-2-methyl-5-pyrrolidin-1-yl)benzene]	***** (***** indicates % kill greater than, or equal to, 99)	1 to 10	*** (*** indicates % kill greater than, or equal to, 90 and less than 95)	≥ 10
Maytan-3-O-carbamoyl-N-(2-methyl-3-amino)benzene [Compound 30d]	**** (**** indicates % kill greater than, or equal to, 95 and less than 99)	1 to 10	**** (**** indicates % kill greater than, or equal to, 95 and less than 99)	1 to 10
